The record followed here is patent US8497298B2, “Use of benzo-fused heterocycle sulfamide derivatives for lowering lipids and lowering blood glucose levels” (Janssen Pharmaceutica NV, priority 2005, dated 2013).

The test system of this assay is Zucker diabetic fatty (ZDF Gmi-fa/fa) rats. In words: Oral Glucose Tolerance Test (OGTT) in Zucker diabetic fatty rats, Day 7 (Example 15). In kind it is in vivo, rat. The settings on record: for AUC for blood glucose (OGTT) / OGTT blood glucose 30 min / OGTT blood glucose 60 min / OGTT blood glucose 90 min / OGTT blood glucose 120 min: Day 7; for OGTT blood glucose 0 min: Day 7, 4 hour-fasted, 2g/kg glucose. How it is done:
Compound #8 was suspended in 0.5% Methocel using a hand held homogenizer to reduce the particle size and a magnetic stir bar and stir plate to keep the particles homogeneously suspended throughout the dosing period. 0.5% Hydroxypropyl Methylcellulose (Methocel) used as vehicle/control. Compound #8 was tested in both diabetic models of mouse and rat.
In this study, female Zucker diabetic fatty (ZDF Gmi-fa/fa) rats were selected for glucose lowering effect and oral glucose tolerance test (OGTT) studies. ZDF rats from (Charles River Laboratories, Wilmington, Mass.) at 7 weeks of age were individually housed and fed with C13004 diet (obtained from Research Diets, New Brunswick, N.J.). All of the rats were quarantined for a period of one week before transfer to the animal procedure room. A drop of blood (about 2 microliters) was collected by tail puncture and glucose concentration was detected with a glucometer (OneTouch UltraSmart, Lifescan, Milpitas, Calif.).
ZDF rats at 8 weeks of age were randomized into four treatment groups based on glucose values (first criterion, average of 150 mg/dL) and body weight (second criterion, average of 240 g). 32 rats were allocated into 4 treatment groups of 8 rats each. The four groups were then treated with 0.5% Methocel (vehicle), 10 mg/kg Compound #8, 30 mg/kg Compound #8, and 100 mg/kg Compound #8 in vehicle, respectively.
The rats were orally gavaged once daily (at 1500-1700 hour) with vehicle control (0.5% Methocel, pH7.4) or vehicle containing Compound #8 for 7 days. The dosing volume was 5 mL/kg body weight (1.2 mL for 250 gram rat). The rats were fed ad lib throughout the study.
Basal glucose levels after treatments were measured on Day 4 and Day 6 in 2 hour fasted rats with a glucometer (OneTouch UltraSmart, Lifescan, Milpitas, Calif.) after collecting two microliters of blood through tail puncture. Oral Glucose Tolerance Test (OGTT) was performed on Day 7 in 4 hour-fasted rats. Two hours after being dosed with Compound #8 or vehicle, the rats were gavaged with a 2g/kg of 50% glucose solution right after basal glucose levels measurement (0 minute). Blood glucose levels were then measured at 30, 60, 90 and 120 minutes through tail puncture.
Data from this study was analyzed using the standard two-tailed Student's t-test and are expressed below as means and standard errors.

For the compound `NS(=O)(=O)NC[C@H]1COc2cc(Cl)ccc2O1` [Compound #8, (2S)-(−)-N-(6-Chloro-2,3-dihydro-benzo[1,4]dioxin-2-ylmethyl)-sulfamide], for the setting “10 mg/kg”, the “AUC for blood glucose (OGTT)” value worked out at 33279 ± 3607 mg·min/dL, the “OGTT blood glucose 30 min” value is given as 281 ± 30, the “OGTT blood glucose 60 min” value was found to be 316 ± 33 and the “OGTT blood glucose 90 min” value amounted to 293 ± 24. Further, for the setting “10 mg/kg”, the “OGTT blood glucose 120 min” value was found to be 252 ± 30 and the “OGTT blood glucose 0 min” value is listed as 186 ± 30. Where the note is “30 mg/kg”, the “AUC for blood glucose (OGTT)” value amounted to 28556 ± 2477 mg·min/dL, the “OGTT blood glucose 30 min” value amounted to 244 ± 24, the “OGTT blood glucose 60 min” value amounted to 263 ± 18 and the “OGTT blood glucose 90 min” value is given as 253 ± 23. Further, for the setting “30 mg/kg”, the “OGTT blood glucose 120 min” value is given as 221 ± 18 and the “OGTT blood glucose 0 min” value was 163 ± 18. Moreover, for the setting “100 mg/kg”, the “AUC for blood glucose (OGTT)” value turned out to be 21529 ± 984 mg·min/dL, the “OGTT blood glucose 30 min” value is recorded as 209 ± 14, the “OGTT blood glucose 60 min” value is reported as 200 ± 10 and the “OGTT blood glucose 90 min” value stood at 175 ± 8. Further, under “100 mg/kg”, the “OGTT blood glucose 120 min” value is recorded as 145 ± 7 and the “OGTT blood glucose 0 min” value came out at 123 ± 5.
